System: Parkinson's disease patients in the OFF state
Test: Phase 2 study of pulmonary levodopa in PD patients: plasma levodopa concentration vs UPDRS
Format: in vivo, human
Details: FIG. 8, plasma concentration vs UPDRS
Procedure: The twenty four PD (24) patients treated in this study underwent serial evaluations of L-dopa plasma levels, motor response, and safety at each visit. The patients were administered the study drug in the OFF state with the serial evaluations starting prior to dosing and continuing for up to 180 minutes post-dose. Motor function was measured using a tapping test, the Unified Parkinson's Disease Rating Scale Part III (UPDRS III), and subjective evaluation of “meaningful” ON and OFF. Safety parameters monitored included pulmonary function, clinical laboratory data, EGCs, and vital signs (blood pressure, heart rate, and orthostatic blood pressure). This study was designed to measure the time, magnitude, and durability of pulmonary levodopa's effect on motor function, to evaluate the safety and tolerability of pulmonary levodopa in Parkinson's disease patients.
In FIG. 8, patient's plasma levodopa concentrations are being compared to UPDRS scores. UPDRS is a standard test for Parkinson's disease patients to test their response to drug treatment and their disease progression. […] The different baseline levels of levodopa plasma relate to the fact that each patient has a different effective dose or effective concentration for the levodopa to have an effect on each patient. […]

SMILES: N[C@@H](Cc1ccc(O)c(O)c1)C(=O)O [L-Dopa, levodopa]
- levodopa plasma concentration difference between being in the off state and in the on state: 200 to 400 ng/mL
